Reference: patent publication US20240100012A1, “PHARMACEUTICAL DOSAGE FORM” (priority 2021, published 2024)

Legend:
[1] = Solubility of escitalopram base in organic solvents; format: physicochemical
[2] = Aqueous solubility of escitalopram base; format: physicochemical; conditions: crystalline and/or oil forms

solubility in organic solvents ([1]; crystalline or oil, organic solvents such as N-Methyl-2-pyrrolidone (NMP) and Dimethyl sulfoxide (DMSO)): extremely high solubility
escitalopram content of solutions that can be prepared in organic solvents ([1]; oil forms of escitalopram base, organic solvents): more than 70 % wt
aqueous solubility [2]: low aqueous solubility
SMILES: CN(C)CCC[C@@]1(c2ccc(F)cc2)OCc2cc(C#N)ccc21 [escitalopram base, S-1-[3-(dimethylamino)propyl]-1-(4-fluorophenyl)-1,3-dihydro-5-isobenzofurancarbonitrile]
